Experimental data reported in patent US11440907B1 (Merck Patent GmbH, priority 2018, dated 2022).
pEC50, pIC50: −log10 of the molar value.

Assays:
Type in all cases: cell-based
[1] = system: β-catenin-TCF-mediated reporter transcription activity in Colo 205 cells; assay: Colo 205 reporter assay (TCF/LEF promoter-driven firefly luciferase); settings: Homo sapiens; Colo 205 TCF/LEF luciferase reporter, 5 hours after compound addition, 384 well; read-out: Colo205 IC50
[2] = system: XBP1(u)-luciferase splicing reporter in HepG2 hepatoma cells; assay: HepG2 XBP1 reporter assay (XBP1(u)-Luc); settings: Homo sapiens, 6 hours after compound addition, Table 3, read-out: XBP1-luc HepG2 1 EC50
[3] = system: intracellular calcium flux in Colo-205 cells; assay: Calcium flux assay (FLIPR Calcium 5 Assay Kit, FLIPR3); settings: Homo sapiens, 0.6 h, calcium flux measured over 36 minutes, read-out: Colo 205 Calcium Flux assay 384w Boston Ca assay FLIPR3 Colo EC50
Experimental: Compounds described herein induced ER stress by causing intracellular calcium flux. Calcium flux was measured in Colo-205 cells using the FLIPR® Calcium 5 Assay Kit according to manufacturer's protocol (Molecular Devices, Cat. #R8186) on a FLIPR3 system (Molecular Devices). Calcium flux is measured over 36 minutes. The Colo-205 calcium flux assay data are summarized in Table 3: A<0.6 μM; 0.6 μM≤B<2.0 μM; 2.0 μM≤C<10.0 μM; D≥10.0 μM.

Row | pIC50 [1] | pEC50 [2] | pEC50 [3] | SMILES
1 | 6.00 to 6.52 | 5.30 to 5.70 | 5.70 to 6.22 | COc1ccc(Cl)cc1C1CCCCCN1c1cc(C)nc(N)n1 (stereo not drawn) [I-21, 4-(2-(5-chloro-2-methoxyphenyl)azepan-1-yl)-6-methylpyrimidin-2-amine]
2 | > 6.52 | > 6.22 | > 6.22 | CNc1ccc(Cl)c(C2COCCCN2c2cc(C)nc(N)n2)c1 (racemic) [I-175, (+/−)-4-[3-[2-chloro-5-(methylamino)phenyl]-1,4-oxazepan-4-yl]-6-methyl-pyrimidin-2-amine]
3 | 6.00 to 6.52 | > 6.22 | > 6.22 | Cc1cc(N2CCCOC[C@@H]2c2ccc(N3CCC4(CCOC4)C3)cc2Cl)nc(N)n1 (stereo partly drawn) [I-219, 4-[(3S)-3-[2-chloro-4-(2-oxa-7-azaspiro[4.4]nonan-7-yl)phenyl]-1,4-oxazepan-4-yl]-6-methyl-pyrimidin-2-amine]
4 | > 6.52 | > 6.22 | > 6.22 | Cc1cc(N2CCCOC[C@@H]2c2ccc(CS(C)(=O)=O)cc2Cl)nc(N)n1 (single isomer, unassigned) [I-224]
5 | > 6.52 | > 6.22 | > 6.22 | Cc1cc(N2CCCOC[C@@H]2c2ccc(NC3COC3)cc2Cl)nc(N)n1 [I-215, 4-[(3S)-3-[2-chloro-4-(oxetan-3-ylamino)phenyl]-1,4-oxazepan-4-yl]-6-methyl-pyrimidin-2-amine]
6 | 6.00 to 6.52 | > 6.22 | > 6.22 | COc1ccc(C2CCCCCN2c2cc(C)nc(N)n2)c(OC)c1 (racemic) [I-51, (+/−)-4-[2-(2,4-dimethoxyphenyl)azepan-1-yl]-6-methyl-pyrimidin-2-amine]
7 | 5.30 to 6.00 | 5.70 to 6.22 | > 6.22 | CCNC(=O)c1ccc(C2COCCCN2c2cc(C)nc(N)n2)c(Cl)c1 (racemic) [I-171, (+/−)-4-[4-(2-amino-6-methyl-pyrimidin-4-yl)-1,4-oxazepan-3-yl]-3-chloro-N-ethyl-benzamide]
8 | > 6.52 | > 6.22 | > 6.22 | Cc1cc(N2CCCOC[C@@H]2c2ccc(N(C)C3COC3)cc2Cl)nc(N)n1 (single isomer, unassigned) [I-190]
9 | 6.00 to 6.52 | 5.30 to 5.70 | > 6.22 | Cc1cc(N2CCCOCC2c2cc(C(=O)NC3CC3)ccc2Cl)nc(N)n1 (racemic) [I-172, (+/−)-3-(4-(2-amino-6-methylpyrimidin-4-yl)-1,4-oxazepan-3-yl)-4-chloro-N-cyclopropylbenzamide]
10 | 6.00 to 6.52 | 5.30 to 5.70 | > 6.22 | CNC(=O)c1ccc([C@H]2COCCCN2c2cc(C)nc(N)n2)c(Cl)c1 [I-150, (S)-4-(4-(2-amino-6-methylpyrimidin-4-yl)-1,4-oxazepan-3-yl)-3-chloro-N-methylbenzamide]
11 | 6.00 to 6.52 | > 6.22 | > 6.22 | CCC(=O)Nc1ccc(C2COCCCN2c2cc(C)nc(N)n2)c(Cl)c1 (stereo not drawn) [I-306]
12 | > 6.52 | > 6.22 | > 6.22 | CC(=O)Nc1ccc(Cl)c([C@@H]2COCCCN2c2cc(C)nc(N)n2)c1 [I-92]
13 | 6.00 to 6.52 | > 6.22 | > 6.22 | Cc1cc(N2CCCOCC2c2ccc(NC(=O)C3(O)CC3)cc2Cl)nc(N)n1 (stereo not drawn) [I-303]
14 | 6.00 to 6.52 | > 6.22 | > 6.22 | COCC(=O)Nc1ccc(C2COCCCN2c2cc(C)nc(N)n2)c(Cl)c1 (racemic) [I-192, (+/−)-N-[4-[4-(2-amino-6-methyl-pyrimidin-4-yl)-1,4-oxazepan-3-yl]-3-chloro-phenyl]-2-methoxy-acetamide]
15 | > 6.52 | > 6.22 | > 6.22 | COc1ccc(OC)c([C@H]2CCCCCN2c2cc(C)nc(N)n2)c1 (single isomer, unassigned) [I-40]
16 | 6.00 to 6.52 | 5.70 to 6.22 | > 6.22 | Cc1cc(N2CCCOCC2c2cc3nccn3cc2Cl)nc(N)n1 (racemic) [I-191, 4-(3-(6-chloroimidazo[1,2-a]pyridin-7-yl)-1,4-oxazepan-4-yl)-6-methylpyrimidin-2-amine]
17 | 6.00 to 6.52 | 5.70 to 6.22 | > 6.22 | Cc1cc(N2CCCOCC2c2cc(-n3cccc3)ccc2Cl)nc(N)n1 (stereo not drawn) [I-300]
18 | 6.00 to 6.52 | > 6.22 | > 6.22 | Cc1cc(N2CCCOCC2c2ccc(NC(=O)C3CC3)cc2Cl)nc(N)n1 (stereo not drawn) [I-305]
19 | > 6.52 | > 6.22 | > 6.22 | Cc1cc(N2CCCOC[C@@H]2c2cc3nccn3cc2Cl)nc(N)n1 (single isomer, unassigned) [I-221, 4-[3-(6-chloroimidazo[1,2-a]pyridin-7-yl)-1,4-oxazepan-4-yl]-6-methyl-pyrimidin-2-amine]

Row | pIC50 [1] | pEC50 [2] | pEC50 [3] | SMILES
20 | 6.00 to 6.52 | > 6.22 | > 6.22 | CCS(=O)(=O)c1ccc([C@H]2COCCCN2c2cc(C)nc(N)n2)c(Cl)c1 [I-183, 4-(3-(2-chloro-4-(ethylsulfonyl)phenyl)-1,4-oxazepan-4-yl)-6-methylpyrimidin-2-amine]
21 | > 6.52 | > 6.22 | > 6.22 | Cc1cc(N2CCCOCC2c2cc(NC(=O)C(F)(F)F)ccc2Cl)nc(N)n1 (single isomer, unassigned) [I-177, N-(3-(4-(2-amino-6-methylpyrimidin-4-yl)-1,4-oxazepan-3-yl)-4-chlorophenyl)-2,2,2-trifluoroacetamide]
22 | > 6.52 | > 6.22 | > 6.22 | Cc1nc(N)nc2c1-c1c(NC3COC3)ccc(Cl)c1C1COCCCN21 (stereo not drawn) [I-309]
23 | > 6.52 | > 6.22 | > 6.22 | Cc1cc(N2CCCOC[C@@H]2c2ccc(N3CC4COCC4C3)cc2Cl)nc(N)n1 (stereo partly drawn) [I-220, 4-[(3S)-3-[4-(1,3,3a,4,6,6a-hexahydrofuro[3,4-c]pyrrol-5-yl)-2-chloro-phenyl]-1,4-oxazepan-4-yl]-6-methyl-pyrimidin-2-amine]
24 | > 6.52 | 5.30 to 5.70 | > 6.22 | COc1ccc(F)cc1[C@H]1COCCCN1c1cc(C)nc(N)n1 [I-288]
25 | 6.00 to 6.52 | 5.70 to 6.22 | 5.70 to 6.22 | COc1cc(Cl)ccc1C1CCCCCN1c1cc(C)nc(N)n1 (stereo not drawn) [I-20, 4-(2-(4-chloro-2-methoxyphenyl)azepan-1-yl)-6-methylpyrimidin-2-amine]
26 | 6.00 to 6.52 | 5.70 to 6.22 | > 6.22 | Cc1cc(N2CCCOCC2c2cc(N3CCCC3)ccc2Cl)nc(N)n1 (stereo not drawn) [I-304]
27 | 6.00 to 6.52 | 5.30 to 5.70 | > 6.22 | Cc1cc(N2CCCOC[C@@H]2c2ccc(P(C)(C)=O)cc2Cl)nc(N)n1 [I-214, 4-[3-(2-chloro-4-dimethylphosphoryl-phenyl)-1,4-oxazepan-4-yl]-6-methyl-pyrimidin-2-amine]
28 | 6.00 to 6.52 | 5.70 to 6.22 | > 6.22 | CCNC(=O)c1ccc(Cl)c(C2COCCCN2c2cc(C)nc(N)n2)c1 (racemic) [I-173, (+/−)-3-[4-(2-amino-6-methyl-pyrimidin-4-yl)-1,4-oxazepan-3-yl]-4-chloro-N-ethyl-benzamide]
29 | > 6.52 | > 6.22 | > 6.22 | CCC(=O)Nc1ccc([C@H]2COCCCN2c2cc(C)nc(N)n2)c(Cl)c1 (single isomer, unassigned) [I-204]
30 | 6.00 to 6.52 | 5.30 to 5.70 | > 6.22 | Cc1cc(N2CCCOCC2c2cc(NC(=O)CC3COC3)ccc2Cl)nc(N)n1 (racemic) [I-185, (+/−)-N-[3-[4-(2-amino-6-methyl-pyrimidin-4-yl)-1,4-oxazepan-3-yl]-4-chloro-phenyl]-2-(oxetan-3-yl)acetamide]
31 | > 6.52 | > 6.22 | > 6.22 | Cc1cc(N2CCCOC[C@H]2c2ccc(NS(C)(=O)=O)cc2Cl)nc(N)n1 (single isomer, unassigned) [I-179, N-[4-[4-(2-amino-6-methyl-pyrimidin-4-yl)-1,4-oxazepan-3-yl]-3-chloro-phenyl]methanesulfonamide]
32 | > 6.52 | > 6.22 | > 6.22 | CC(=O)Nc1ccc([C@H]2COCCCN2c2cc(C)nc(N)n2)c(Cl)c1 (single isomer, unassigned) [I-162]
33 | > 6.52 | > 6.22 | > 6.22 | COC1CCN(c2ccc([C@H]3COCCCN3c3cc(C)nc(N)n3)c(Cl)c2)C1 (stereo partly drawn) [I-218, 4-[(3S)-3-[2-chloro-4-(3-methoxypyrrolidin-1-yl)phenyl]-1,4-oxazepan-4-yl]-6-methyl-pyrimidin-2-amine]
34 | 6.00 to 6.52 | > 6.22 | > 6.22 | COCc1ccc(C2COCCCN2c2cc(C)nc(N)n2)c(Cl)c1 (racemic) [I-205, (+/−)-4-[3-[2-chloro-4-(methoxymethyl)phenyl]-1,4-oxazepan-4-yl]-6-methyl-pyrimidin-2-amine]
35 | > 6.52 | > 6.22 | > 6.22 | Cc1cc(N2CCCOCC2c2ccc(CS(C)(=O)=O)cc2Cl)nc(N)n1 (racemic) [I-208, (+/−)-4-(3-(2-chloro-4-((methylsulfonyl)methyl)phenyl)-1,4-oxazepan-4-yl)-6-methylpyrimidin-2-amine]
36 | > 6.52 | > 6.22 | > 6.22 | CNC(=O)c1ccc(Cl)c([C@@H]2COCCCN2c2cc(C)nc(N)n2)c1 [I-181]
37 | 6.00 to 6.52 | 5.70 to 6.22 | > 6.22 | Cc1cc(N2CCCOCC2c2cc(N3CCCC3)ccc2Cl)nc(N)n1 (racemic) [I-199, (+/−)-4-[3-(2-chloro-5-pyrrolidin-1-yl-phenyl)-1,4-oxazepan-4-yl]-6-methyl-pyrimidin-2-amine]
